# Measurements as given in patent US11485740B2, “Inhibitors of TRPC6” (Boehringer Ingelheim International GmbH, priority 2018, dated 2022).
# Target: T1, human TRPC6 (Homo sapiens, UniProt Q9Y210)
# T1 construct: expressed in transfected cells
# T1 sequence (Q9Y210 1-931): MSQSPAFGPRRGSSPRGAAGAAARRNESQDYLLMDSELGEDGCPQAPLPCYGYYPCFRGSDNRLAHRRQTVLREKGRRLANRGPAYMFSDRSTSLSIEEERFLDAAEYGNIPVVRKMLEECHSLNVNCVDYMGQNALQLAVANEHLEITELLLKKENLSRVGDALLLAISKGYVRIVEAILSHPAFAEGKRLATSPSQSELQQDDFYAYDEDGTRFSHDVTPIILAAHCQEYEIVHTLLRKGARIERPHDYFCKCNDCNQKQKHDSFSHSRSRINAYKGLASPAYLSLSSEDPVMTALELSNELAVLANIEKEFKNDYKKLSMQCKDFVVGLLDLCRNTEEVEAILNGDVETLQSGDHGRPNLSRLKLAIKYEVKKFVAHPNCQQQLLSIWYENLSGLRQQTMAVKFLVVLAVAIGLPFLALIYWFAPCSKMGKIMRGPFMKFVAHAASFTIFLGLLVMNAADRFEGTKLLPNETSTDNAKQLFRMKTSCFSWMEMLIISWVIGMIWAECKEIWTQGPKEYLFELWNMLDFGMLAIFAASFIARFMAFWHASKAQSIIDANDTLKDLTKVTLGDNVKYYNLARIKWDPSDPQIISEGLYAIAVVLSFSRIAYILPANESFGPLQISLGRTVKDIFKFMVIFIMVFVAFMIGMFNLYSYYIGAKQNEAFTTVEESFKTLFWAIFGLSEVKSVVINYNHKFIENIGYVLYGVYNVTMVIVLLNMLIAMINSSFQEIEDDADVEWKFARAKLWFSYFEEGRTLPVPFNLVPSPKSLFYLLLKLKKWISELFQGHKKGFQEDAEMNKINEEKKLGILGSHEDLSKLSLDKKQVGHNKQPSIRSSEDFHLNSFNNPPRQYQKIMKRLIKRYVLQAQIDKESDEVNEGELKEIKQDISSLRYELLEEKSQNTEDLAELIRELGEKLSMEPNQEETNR
# Assay: High throughput screening assay: Fluo4/AM calcium fluorescence in HEK293/TREx cells expressing human TRPC6, agonist GSK1702934A (single concentration 10 μM and IC50 curves)
# Type: cell-based
# Conditions: antagonist effect against human TRPC6, 7 concentrations 20 μM to 0.027 μM, triplicate
# Excerpt: High Throughput Screening Assay
# This screening assay measures human TRPC6 (transient receptor potential cation channel, subfamily C, member 6) ion channel activation via addition either of the commercially available DAG ligand analogue OAG (1-oleoyl-2-acetyl-sn-glycerol) or of the TRPC6 agonist 1-[1-(4,5,6,7,8-pentahydrocyclohepta[2,1-d]thiophen-2-ylcarbonyl)-4-piperidyl]-3-hydrobenzimidazol-2-one (GSK1702934A). The assay utilizes a fluorescent calcium sensor 4-(6-Acetoxymethoxy-2,7-difluoro-3-oxo-9-xanthenyl)-4′-methyl-2,2′-(ethylenedioxy)dianiline-N,N,N′,N′-tetraacetic acid tetrakis(acetoxymethyl) ester (Fluo4/AM) dye from Molecular Devices. Changes (increases) in intracellular calcium concentration as measured by the fluorescent signal increase provide a measurement of channel activity.
# The commercially available HEK293/TREx line (Invitrogen) was stably transfected with a human TRPC6 construct and screened by conventional calcium imaging to find clones with human TRPC6 expression following stimulation with 1 μg/ml tetracycline. These cells were maintained in the growth medium recommended by the manufacturer supplemented with 100 μg/ml hygromycin to promote retention of the human TRPC6 construct. After growing to near confluency, cells were plated at a density of ^˜35,000 cells/well in 384 well CellBind plates (Corning) in the presence of 1 μg/ml tetracycline, and allowed to grow for 20-30 hrs. A nearly confluent monolayer resulted. Growth media was removed from the wells and cells were then loaded with […] Fluo4/AM diluted in Ringer's Solution (6.5 g NaCl, 0.42 g KCl, 0.25 g CaCl2) and 0.2 g of sodium bicarbonate; pH 7.4) supplemented with 1% Pluronic F-127 to a final concentration of 0.5 μM and incubated for 60 min, at room temperature. Dye solution was then removed from the cells by inverting plates with a sharp flick, and replaced with 25 μl Ringer's. Following ^˜0.5 hour for recovery from loading, cells were assayed using the Hamamatsu FDSS 6000 system, which permitted illumination at 485 nm. Frames were acquired at a rate of 0.2 Hz. During the assay, the plates were continuously vortexed, with pipette mixing of wells following addition of each reagent. For the screening assay, 26 μl of a diluted compound stock (at 50 μM) was added to each well for 2 minutes following the collection of a short (4 frame) baseline. 13 μl of agonist solution consisting of 125 nM GSK1702934A diluted in high-Ca2+Ringer solution (containing 90 mM Ca2+) was then added to each well, achieving a final concentration of 20 mM Ca2+ and 10 μM test compound. Data was collected for ^˜3 minutes following addition of high Ca2+Ringer. The fluorescent intensity observed at a particular timepoint for each well was divided by the initial fluorescent intensity for that well and the overall response was determined by averaging the resulting fluorescent ratio of the last 4 frames acquired during the experiment excepting the final frame. Negative and Positive controls were included on each plate. Negative controls wells consisted of HEK293/TREx TRPC6 cells exposed to assay buffer and agonist solution, but no test compound. Positive control consisted of wells consisted of HEK293/TREx TRPC6 cells exposed to 25 μM 3-[(2-chlorophenoxy)methyl]phenyl piperidyl ketone (Chembridge) diluted in Ringer's solution and agonist solution. These controls defined zero percent and 100 percent block respectively, and intensity of each well was normalized to these values.
# Compounds were tested in triplicate at all concentrations. Standard software was used to fit IC50 curves.
row,IC50 [nM],SMILES
1,220,"COc1cc(C(=O)N2CCC(c3ccc(N)nn3)CC2)ncc1-c1cccc(F)c1 [Compound 35, 6-{1-[5-(3-Fluorophenyl)-4-methoxypyridine-2-carbonyl]piperidin-4-yl}pyridazin-3-amine]"
2,380,"COc1cc(C(=O)N2CCC(c3ccc(N)nn3)CC2)ccc1-c1ccc(OCC2CC2(F)F)nc1 (stereo not shown) [Compound 76, [4-(6-Amino-pyridazin-3-yl)-piperidin-1-yl]{4-[6-(2,2-difluoro-cyclopropylmethoxy)-pyridin-3-yl]-3-methoxy-phenyl}-methanone]"
3,130,"COc1cc(C(=O)N2CCC(c3ccc(N)nn3)CC2)ncc1-c1ccc(OC2CC2)cc1 [Compound 41, [4-(6-Amino-pyridazin-3-yl)-piperidin-1-yl]-[5-(4-cyclopropoxy-phenyl)-4-methoxy-pyridin-2-yl]-methanone]"
4,4100,"COc1cc(C(=O)N2CCC(c3ccc(N)nn3)CC2)ccc1-c1ccnc(C(F)(F)F)c1 [Compound 61, [4-(6-Amino-pyridazin-3-yl)-piperidin-1-yl]-[3-methoxy-4-(2-trifluoromethyl-pyridin-4-yl)-phenyl]-methanone]"
5,250,"COc1cc(C(=O)N2C[C@@H]3C[C@H]2CN3c2ccc(N)nn2)ccc1-c1ccc(C(F)(F)F)cc1 [Compound 115, [(1S,4S)-5-(6-Amino-pyridazin-3-yl)-2,5-diaza-bicyclo[2.2.1]hept-2-yl]-(2-methoxy-4′-trifluoromethyl-biphenyl-4-yl)-methanone]"
6,67,"COc1cc(C(=O)N2CCN(c3ccc(N)nc3)[C@H](C)C2)ccc1-c1ccc(C(F)(F)F)cc1 [Compound 114, [(R)-4-(6-Amino-pyridin-3-yl)-3-methyl-piperazin-1-yl]-(2-methoxy-4′-trifluoromethyl-biphenyl-4-yl)-methanone]"
7,900,"COc1cc(C(=O)N2CCC(c3ccc(N)nn3)CC2)ncc1-c1ccc(C)c(C#N)c1 [Compound 51, 5-{6-[4-(6-Amino-pyridazin-3-yl)-piperidine-1-carbonyl]-4-methoxy-pyridin-3-yl}-2-methyl-benzonitrile]"
8,2500,"COc1ccc(-c2ccc(C(=O)N3CCC(c4ccc(N)nn4)CC3)cc2)cc1 [Compound 5, [4-(6-Amino-pyridazin-3-yl)-piperidin-1-yl]-(4′-methoxy-biphenyl-4-yl)-methanone]"
9,69,"COc1cc(C(=O)N2CCC(c3ccc(N)nn3)CC2)ncc1-c1ccc(OC2CCCC2)cc1 [Compound 23, [4-(6-Amino-pyridazin-3-yl)-piperidin-1-yl]-[5-(4-cyclopentyloxy-phenyl)-4-methoxy-pyridin-2-yl]-methanone]"
10,27,"COc1cc(C(=O)N2CCN(c3cnc(N)cc3C)C[C@@H]2CO)ncc1-c1ccccc1 [Compound 94, [(R)-4-(6-Amino-4-methyl-pyridin-3-yl)-2-hydroxymethyl-piperazin-1-yl]-(4-methoxy-5-phenyl-pyridin-2-yl)-methanone]"
11,360,"Cc1cc(-c2ccc(C(F)(F)F)cc2)ccc1C(=O)N1CCC(c2ccc(N)nn2)CC1 [Compound 69, [4-(6-Amino-pyridazin-3-yl)-piperidin-1-yl]-(3-methyl-4′-trifluoromethyl-biphenyl-4-yl)-methanone]"
12,350,"COc1cc(C(=O)N2CCC(c3nnc(N)cc3OC)CC2)ncc1-c1ccc(C(F)(F)F)cc1 [Compound 85, [4-(6-Amino-4-methoxy-pyridazin-3-yl)-piperidin-1-yl]-[4-methoxy-5-(4-trifluoromethyl-phenyl)-pyridin-2-yl]-methanone]"
13,300,"COc1cc(C(=O)N2CCN(c3ccc(N)nc3)C[C@@H]2CO)ncc1-c1ccccc1 [Compound 91, [(R)-4-(6-Amino-pyridin-3-yl)-2-hydroxymethyl-piperazin-1-yl]-(4-methoxy-5-phenyl-pyridin-2-yl)-methanone]"
14,320,"COc1cc(C(=O)N2CCC(c3ccc(N)nn3)CC2)ccc1-c1ccc(OC(C)C)cc1 [Compound 57, [4-(6-Amino-pyridazin-3-yl)-piperidin-1-yl]-(4′-isopropoxy-2-methoxy-biphenyl-4-yl)-methanone]"
15,2800,"C[C@@H]1CN(C(=O)c2ccc(-c3ccc(C(F)(F)F)cc3)cc2)CCN1c1ccc(N)nc1 [Compound 113, [(R)-4-(6-Amino-pyridin-3-yl)-3-methyl-piperazin-1-yl]-(4′-trifluoromethyl-biphenyl-4-yl)-methanone]"
16,370,"COc1cc(C(=O)N2CCN(c3ccc(N)nc3)C[C@@H]2CO)ncc1-c1ccc(F)cc1 [Compound 90, [(R)-4-(6-Amino-pyridin-3-yl)-2-hydroxymethyl-piperazin-1-yl]-[5-(4-fluoro-phenyl)-4-methoxy-pyridin-2-yl]-methanone]"
17,110,"COc1cc(C(=O)N2CCC(c3ccc(N)nn3)CC2)ncc1-c1ccccc1 [Compound 32, [4-(6-Amino-pyridazin-3-yl)-piperidin-1-yl]-(4-methoxy-5-phenyl-pyridin-2-yl)-methanone]"
18,130,"COc1cc(C(=O)N2CCC(c3ccc(N)nn3)CC2)ncc1-c1ccc(OC(F)(F)F)nc1 [Compound 48, [4-(6-Amino-pyridazin-3-yl)-piperidin-1-yl]-(4-methoxy-6′-trifluoromethoxy-[3,3′]bipyridinyl-6-yl)-methanone]"
19,94,"COc1cc(C(=O)N2CCC(c3ccc(N)nn3)CC2)ncc1-c1ccc(OC(F)(F)F)cc1 [Compound 31, [4-(6-Amino-pyridazin-3-yl)-piperidin-1-yl]-[4-methoxy-5-(4-trifluoromethoxy-phenyl)-pyridin-2-yl]-methanone]"
20,1300,"COc1nc(C(=O)N2CCC(c3ccc(N)nn3)CC2)ccc1-c1ccc(C(F)(F)F)cc1 [Compound 64, [4-(6-Amino-pyridazin-3-yl)-piperidin-1-yl]-[6-methoxy-5-(4-trifluoromethyl-phenyl)-pyridin-2-yl]-methanone]"

row,SMILES,IC50 [nM]
1,"COc1cc(C(=O)N2CCC(c3ccc(N)nn3)CC2)ncc1-c1ccc(OC2CCC2)nc1 [Compound 49, [4-(6-Amino-pyridazin-3-yl)-piperidin-1-yl]-(6′-cyclobutoxy-4-methoxy-[3,3′]bipyridinyl-6-yl)-methanone]",140
2,"CC[C@H](C)Oc1ccc(-c2ccc(C(=O)N3CCC(c4ccc(N)nn4)CC3)cc2OC)cn1 [Compound 75, [4-(6-Amino-pyridazin-3-yl)-piperidin-1-yl]-{4-[6-((S)-sec-butoxy)-pyridin-3-yl]-3-methoxy-phenyl}-methanone]",91
